According to patent US9096624B2 (OSI Pharmaceuticals, LLC, priority 2009, dated 2015):

Experiments:
FAK [1] = biological target: T1, FAK (Homo sapiens, UniProt Q05397); assay: biochemical
FAK [2] = biological target: T1, FAK; assay: Cell-based capture ELISA for inhibition of FAK autophosphorylation [pY397] in U87MG cells; settings: Mean FAK Cell Mechanistic IC50 + 50% mP U87MG, + 50% mouse plasma

T1 sequence (Q05397 whole entry): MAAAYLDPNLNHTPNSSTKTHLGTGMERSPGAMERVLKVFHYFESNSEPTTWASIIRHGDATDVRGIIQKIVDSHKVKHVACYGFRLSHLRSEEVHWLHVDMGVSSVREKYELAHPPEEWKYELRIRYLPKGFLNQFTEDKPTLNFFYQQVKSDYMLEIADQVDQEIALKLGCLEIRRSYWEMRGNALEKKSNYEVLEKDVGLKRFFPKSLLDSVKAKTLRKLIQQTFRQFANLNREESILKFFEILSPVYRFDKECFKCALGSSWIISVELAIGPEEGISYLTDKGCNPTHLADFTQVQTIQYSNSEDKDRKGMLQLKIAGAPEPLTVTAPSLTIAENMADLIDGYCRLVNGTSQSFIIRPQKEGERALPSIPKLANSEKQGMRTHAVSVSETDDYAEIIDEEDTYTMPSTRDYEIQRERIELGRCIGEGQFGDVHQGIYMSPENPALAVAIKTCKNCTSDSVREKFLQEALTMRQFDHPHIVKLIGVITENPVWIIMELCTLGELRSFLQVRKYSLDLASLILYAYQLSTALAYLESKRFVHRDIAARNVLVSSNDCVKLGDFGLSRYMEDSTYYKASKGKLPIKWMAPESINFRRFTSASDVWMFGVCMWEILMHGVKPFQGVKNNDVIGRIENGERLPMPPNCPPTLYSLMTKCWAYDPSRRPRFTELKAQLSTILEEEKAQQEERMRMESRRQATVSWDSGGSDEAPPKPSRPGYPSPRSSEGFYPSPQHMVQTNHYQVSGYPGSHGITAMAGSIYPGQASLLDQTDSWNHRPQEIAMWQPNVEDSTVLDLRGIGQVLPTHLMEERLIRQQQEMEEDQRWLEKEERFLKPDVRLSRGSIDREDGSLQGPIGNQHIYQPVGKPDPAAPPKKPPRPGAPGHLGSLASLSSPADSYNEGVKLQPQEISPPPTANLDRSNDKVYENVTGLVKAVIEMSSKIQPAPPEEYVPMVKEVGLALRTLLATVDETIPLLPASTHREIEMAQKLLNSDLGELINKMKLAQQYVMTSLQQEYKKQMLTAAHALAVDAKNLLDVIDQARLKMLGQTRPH

With `CCOP(=O)(Cc1ccc(Nc2ncc(C(F)(F)F)c(Nc3ccc(N4CCC(C(=O)O)CC4)c4c3C(=O)N(C)C4)n2)c(OC)c1)OCC` [Example 256, 1-(7-{[2-({4-[(Diethoxyphosphoryl)methyl]-2-methoxyphenyl}amino)-5-(trifluoromethyl)pyrimidin-4-yl]amino}-2-methyl-1-oxo-2,3-dihydro-1H-isoindol-4-yl)piperidine-4-carboxylic acid] the IC50 (FAK [1]) was < 1000 nM and the IC50 (FAK [2]) was < 1000 nM.
`CCOP(=O)(Cc1ccc(Nc2ncc(C(F)(F)F)c(Nc3c4c(cc[n+]3[O-])CN(C)C4=O)n2)c(OC)c1)OCC` [Example 310] was tested, and the IC50 (FAK [1]) was < 1000 nM and the IC50 (FAK [2]) was 1000 to 10000 nM.
With `CCOP(=O)(Cc1ccc(Nc2ncc(C(F)(F)F)c(Nc3cccc4c3c(=O)c(C)cn4CC(=O)O)n2)c(OC)c1)OCC` [Example 302] the IC50 (FAK [1]) was < 1000 nM and the IC50 (FAK [2]) was 1000 to 10000 nM.
`CCOP(=O)(Cc1ccc(Nc2ncc(C(F)(F)F)c(Nc3ccc([C@H]4CC[C@@H](C(=O)NO)CC4)c4c3C(=O)N(C)C4)n2)c(OC)c1)OCC` [Example 275, Diethyl (4-{[4-({7-[cis-4-(hydroxycarbamoyl)cyclohexyl]-2-methyl-3-oxo-2,3-dihydro-1H-isoindol-4-yl}amino)-5-(trifluoromethyl)pyrimidin-2-yl]amino}-3-methoxybenzyl)phosphonate] was tested, and the IC50 (FAK [1]) was < 1000 nM and the IC50 (FAK [2]) was < 1000 nM.
`CCOP(=O)(Cc1ccc(Nc2ncc(C(F)(F)F)c(Nc3ccc(N4CCNC(C(=O)O)C4)c4c3C(=O)N(C)C4)n2)c(OC)c1)OCC` (stereo not shown) [Example 287, 4-(7-{[2-({4-[(Diethoxyphosphoryl)methyl]-2-methoxyphenyl}amino)-5-(trifluoromethyl)pyrimidin-4-yl]amino}-2-methyl-1-oxo-2,3-dihydro-1H-isoindol-4-yl)piperazine-2-carboxylic acid] was tested, and the IC50 (FAK [1]) was < 1000 nM and the IC50 (FAK [2]) was 1000 to 10000 nM.
With `CCOP(=O)(Cc1ccc(Nc2ncc(C(F)(F)F)c(Nc3nccc4c3C(=O)N(C)C4)n2)c(OC)c1)OCC` [Example 311] the IC50 (FAK [1]) was < 1000 nM and the IC50 (FAK [2]) was 1000 to 10000 nM.
In the case of `CCOP(=O)(Cc1ccc(Nc2ncc(C(F)(F)F)c(Nc3ccc([C@H]4CC[C@@H](C(N)=O)CC4)c4c3C(=O)N(C)C4)n2)c(OC)c1)OCC` [Example 272, Diethyl (4-{[4-{[7-(cis-4-carbamoylcyclohexyl)-2-methyl-3-oxo-2,3-dihydro-1H-isoindol-4-yl]amino}-5-(trifluoromethyl)pyrimidin-2-yl]amino}-3-methoxybenzyl)phosphonate], the IC50 (FAK [1]) is reported as < 1000 nM and the IC50 (FAK [2]) is reported as < 1000 nM.
With `CCOC(=O)[C@H]1CC[C@@H](c2ccc(Nc3nc(Nc4ccc(CP(=O)(OCC)OCC)cc4OC)ncc3C(F)(F)F)c3c(=O)c(C)c[nH]c32)CC1` [Example 305, Ethyl cis-4-(5-{[2-({4-[(diethoxyphosphoryl)methyl]-2-methoxyphenyl}amino)-5-(trifluoromethyl)pyrimidin-4-yl]amino}-3-methyl-4-oxo-1,4-dihydroquinolin-8-yl)cyclohexanecarboxylate] the IC50 (FAK [1]) was < 1000 nM and the IC50 (FAK [2]) was < 1000 nM.
For `CCOP(=O)(Cc1ccc(Nc2ncc(C(F)(F)F)c(Nc3ccc([C@H]4CC[C@@H](C(=O)N(C)C)CC4)c4c3C(=O)N(C)C4)n2)c(OC)c1)OCC` [Example 273, Diethyl (4-{[4-({7-[cis-4-(dimethylcarbamoyl)cyclohexyl]-2-methyl-3-oxo-2,3-dihydro-1H-isoindol-4-yl}amino)-5-(trifluoromethyl)pyrimidin-2-yl]amino}-3-methoxybenzyl)phosphonate], the IC50 (FAK [1]) was < 1000 nM and the IC50 (FAK [2]) was < 1000 nM.
In the case of `CCOP(=O)(Cc1ccc(Nc2ncc(C(F)(F)F)c(Nc3ccc(C4CCNCC4)c4c3C(=O)N(C)C4)n2)c(OC)c1)OCC` [Example 263, Diethyl (3-methoxy-4-{[4-{[2-methyl-3-oxo-7-(piperidin-4-yl)-2,3-dihydro-1H-isoindol-4-yl]amino}-5-(trifluoromethyl)pyrimidin-2-yl]amino}benzyl)phosphonate], the IC50 (FAK [1]) is reported as < 1000 nM and the IC50 (FAK [2]) is reported as < 1000 nM.
With `CCOP(=O)(Cc1ccc(Nc2ncc(C(F)(F)F)c(Nc3ccc([C@H]4CC[C@H](O)CC4)cc3C(=O)N(C)C)n2)c(OC)c1)OCC` [Example 195, diethyl (4-{[4-{[2-(dimethylcarbamoyl)-4-(trans-4-hydroxycyclohexyl)phenyl]amino}-5-(trifluoromethyl)pyrimidin-2-yl]amino}-3-methoxybenzyl)phosphonate] the IC50 (FAK [1]) was < 1000 nM and the IC50 (FAK [2]) was 1000 to 10000 nM.
`CCOP(=O)(Cc1ccc(Nc2ncc(C(F)(F)F)c(Nc3ccc(C4CCC(O)(C(=O)O)CC4)c4c3C(=O)N(C)C4)n2)c(OC)c1)OCC` (single isomer, unassigned) [Example 278, 4-(7-{2-[4-(Diethoxy-phosphorylmethyl)-2-methoxy-phenylamino]-5-trifluoromethyl-pyrimidin-4-ylamino}-2-methyl-1-oxo-2,3-dihydro-1H-isoindol-4-yl)-1-hydroxy-cyclohexanecarboxylic acid] was tested, and the IC50 (FAK [1]) was < 1000 nM and the IC50 (FAK [2]) was 1000 to 10000 nM.
In the case of `CCOP(=O)(Cc1ccc(Nc2ncc(C(F)(F)F)c(Nc3ccc([C@H]4CC[C@H](C(=O)O)CC4)c4[nH]cc(C)c(=O)c34)n2)c(OC)c1)OCC` [Example 307, Trans-4-(5-{[2-({4-[(diethoxyphosphoryl)methyl]-2-methoxyphenyl}amino)-5-(trifluoromethyl)pyrimidin-4-yl]amino}-3-methyl-4-oxo-1,4-dihydroquinolin-8-yl)cyclohexanecarboxylic acid], the IC50 (FAK [1]) is reported as < 1000 nM and the IC50 (FAK [2]) is reported as 1000 to 10000 nM.
In the case of `CCOP(=O)(Cc1ccc(Nc2ncc(C(F)(F)F)c(Nc3cccc4c3c(=O)c(C)cn4C)n2)c(OC)c1)OCC` [Example 300, Diethyl [4-({4-[(1,3-dimethyl-4-oxo-1,4-dihydroquinolin-5-yl)amino]-5-(trifluoromethyl)pyrimidin-2-yl}amino)-3-methoxybenzyl]phosphonate], the IC50 (FAK [1]) is reported as < 1000 nM and the IC50 (FAK [2]) is reported as < 1000 nM.
With `CCOP(=O)(Cc1ccc(Nc2ncc(C(F)(F)F)c(Nc3ccc(C4=CCN(C)CC4)c4c3C(=O)N(C)C4)n2)c(OC)c1)OCC` [Example 264, Diethyl (3-methoxy-4-{[4-{[2-methyl-7-(1-methyl-1,2,3,6-tetrahydropyridin-4-yl)-3-oxo-2,3-dihydro-1H-isoindol-4-yl]amino}-5-(trifluoromethyl)pyrimidin-2-yl]amino}benzyl)phosphonate] the IC50 (FAK [1]) was < 1000 nM and the IC50 (FAK [2]) was < 1000 nM.
With `CCOP(=O)(CC)Cc1ccc(Nc2ncc(C(F)(F)F)c(Nc3ccc([C@H]4CC[C@H](O)CC4)c4c3C(=O)N(C)C4)n2)cc1` (stereo partly drawn) [Example 202, Ethyl ethyl(4-{[4-{[7-(trans-4-hydroxycyclohexyl)-2-methyl-3-oxo-2,3-dihydro-1H-isoindol-4-yl]amino}-5-(trifluoromethyl)pyrimidin-2-yl]amino}benzyl)phosphinate] the IC50 (FAK [1]) was < 1000 nM and the IC50 (FAK [2]) was < 1000 nM.
For `CCOP(=O)(Cc1ccc(Nc2ncc(C(F)(F)F)c(Nc3ccc([C@H]4CC[C@@](C)(C(=O)O)CC4)c4c3C(=O)N(C)C4)n2)c(OC)c1)OCC` [Example 284, cis-4-(7-{[2-({4-[(Diethoxyphosphoryl)methyl]-2-methoxyphenyl}amino)-5-(trifluoromethyl)pyrimidin-4-yl]amino}-2-methyl-1-oxo-2,3-dihydro-1H-isoindol-4-yl)-1-methylcyclohexanecarboxylic acid], the IC50 (FAK [1]) was < 1000 nM and the IC50 (FAK [2]) was < 1000 nM.
For `CCOP(=O)(Cc1ccc(Nc2ncc(C(F)(F)F)c(Nc3ccc([C@H]4CC[C@@H](C(=O)O)CC4)c4[nH]cc(C)c(=O)c34)n2)c(OC)c1)OCC` [Example 306, Cis-4-(5-{[2-({4-[(diethoxyphosphoryl)methyl]-2-methoxyphenyl}amino)-5-(trifluoromethyl)pyrimidin-4-yl]amino}-3-methyl-4-oxo-1,4-dihydroquinolin-8-yl)cyclohexanecarboxylic acid], the IC50 (FAK [1]) was < 1000 nM and the IC50 (FAK [2]) was < 1000 nM.
Molecule `CCOP(=O)(Cc1ccc(Nc2ncc(C(F)(F)F)c(Nc3ccc([C@H]4CC[C@H](C(=O)O)CC4)c4c3C(=O)N(C)C4)n2)cn1)OCC` [Example 268, trans-4-(7-{[2-({6-[(diethoxyphosphoryl)methyl]pyridin-3-yl}amino)-5-(trifluoromethyl)pyrimidin-4-yl]amino}-2-methyl-1-oxo-2,3-dihydro-1H-isoindol-4-yl)cyclohexanecarboxylic acid] has an IC50 (FAK [1]) of 1000 to 10000 nM and an IC50 (FAK [2]) of 1000 to 10000 nM.
With `CCOP(=O)(Cc1ccc(Nc2ncc(C(F)(F)F)c(Nc3ccccc3C(=O)NOC)n2)c(OC)c1)OCC` [Example 259, Diethyl (3-methoxy-4-{[4-{[2-(methoxycarbamoyl)phenyl]amino}-5-(trifluoromethyl)pyrimidin-2-yl]amino}benzyl)phosphonate] the IC50 (FAK [1]) was < 1000 nM and the IC50 (FAK [2]) was < 1000 nM.
`CCOP(=O)(Cc1ccc(Nc2ncc(C(F)(F)F)c(Nc3ccc([C@H]4CC[C@@](C(=O)O)(N(C)C)CC4)c4c3C(=O)N(C)C4)n2)c(OC)c1)OCC` [Example 285, cis-4-(7-{[2-({4-[(diethoxyphosphoryl)methyl]-2-methoxyphenyl}amino)-5-(trifluoromethyl)pyrimidin-4-yl]amino}-2-methyl-1-oxo-2,3-dihydro-1H-isoindol-4-yl)-1-(dimethylamino)cyclohexanecarboxylic acid] was tested, and the IC50 (FAK [1]) was < 1000 nM and the IC50 (FAK [2]) was < 1000 nM.
`CCOP(=O)(Cc1ccc(Nc2ncc(C(F)(F)F)c(Nc3cccc4c3c(=O)c(C)cn4CP(=O)(OCC)OCC)n2)c(OC)c1)OCC` [Example 303] was tested, and the IC50 (FAK [1]) was < 1000 nM and the IC50 (FAK [2]) was < 1000 nM.
In the case of `CCOP(=O)(Cc1ccc(Nc2ncc(C(F)(F)F)c(Nc3ccc(-c4cnn(CCCO)c4)c4c3C(=O)N(C)C4)n2)c(OC)c1)OCC` [Example 289, Diethyl (4-{[4-({7-[1-(3-hydroxypropyl)-1H-pyrazol-4-yl]-2-methyl-3-oxo-2,3-dihydro-1H-isoindol-4-yl}amino)-5-(trifluoromethyl)pyrimidin-2-yl]amino}-3-methoxybenzyl)phosphonate], the IC50 (FAK [1]) is reported as < 1000 nM and the IC50 (FAK [2]) is reported as < 1000 nM.
